Results: patent US20240294595A1, “GLYCOPEPTIDES AND USES THEREOF” (Arizona Board of Regents on Behalf of the University of …, priority 2013, published 2024)
Entries after “also recorded” stand apart in the source; their conditions may differ.

How the values were obtained:
[1] = rat, serum
[2] = stability in mouse serum at 37° C. (FI-MSn); type: in vitro ADME; conditions: mouse serum at 37° C.
From the text: Chemical stability of the glycopeptides in vivo plays an important role in the deliverability of the drugs to the site(s) of action within the brain. It is also important to know what the chemical or metabolic instabilities are in order to inform the drug design process. […] Data were fitted using a single exponential decay model (R^2>0.71, in all cases).
The overall process was as follows: Flow-injection tandem mass spectrometry (FI-MS^n) was used to observe the degradation of the peptides and glycopeptides with a Thermo LCQ with electrospray ionization (ESI). The technique involved injection of a sample bolus of material in mouse serum via a six port valve with fluid flow delivered via a syringe pump, and subsequent electrospray ionization (ESI) followed by mass spectral analysis. Samples were diluted to a concentration of ˜5 μM of each PACAP analogue, and were incubated at 37° C. for times varying from 1 to 60 minutes. After samples had been incubated for the prescribed amount of time they were prepared for mass spectrometry analysis by withdrawing 10 microliters of solution and spiking with 1 microliter of a 10 μM solution of peptide internal standard (angiotensin II) in 50% acetic acid and subjecting them to a standard C18 zip tip desalting. These solutions, once eluted from the zip tip were diluted to 100 μL in 50:50 acetonitrile/water with 0.1% formic acid. Tandem mass spectrometry analysis (MS^3) was conducted to yield specific, quantitative signals proportional to the amount of PACAP analogue at each time point. This technique was also used with microdiasylate samples from a mouse after i.p. administration of PACAP1-27-S-G.

PC12 cells = experiment: PC12 cell morphology / neurite outgrowth; type: cell-based; conditions: 100 nM
Procedure: PC12 cells are non-adherent cells, and in spite of using the poly-D-Lysine coated plates, the majority of the cells remained suspended. During the media exchange many of the cells were removed with the spent media. The remaining cells could be visually evaluated for qualitative morphological changes at the end of the treatment period, but meaningful cell quantification could not be done reliably using this approach.
FIGS. 5A-5D show PC12 Cell Morphology after Vehicle vs PACAP Treatment (100 nM). […] In all cases the process outgrowths on the treated cells were greater than 2× the cell body width
The PC12 cells were cultured in RPMI containing 5% heat inactivated fetal bovine serum and 10% horse serum in the presence of 100 units/mL penicillin and 100 microgram/mL streptomycin. The cells were plated on poly-D-Lysine coated 6-well tissue culture plates at a density of 150,000 cells per well in 2 mL media. After 48 hours at 37° C. in 5% CO2 atmosphere, media exchange was performed and plates were dosed, using the peptide diluent (water) for the control samples. […] Cell images of each treatment group were captured and compared to the control cells to screen for differentiation and cell body volume increases. Cells having neurite-like process outgrowth were noted and photographed. The neurite-like outgrowth was deemed positive if its length was at least two times the width of the cell body.

[3] = test system: 6-OHDA hemi-parkinsonian rat model; experiment: mild (25%) 6-OHDA hemi-parkinsonian rat model (study 1); type: in vivo
From the text: The classical mild progressive 6-OHDA hemi-parkinsonian rat model was used to assess the neuroprotective potential of 2LS98Lac (FIGS. 9A,B). Briefly, the rats were given unilateral lesions by treatment with 6-OHDA. Then, the rats were challenged with a dopaminergic receptor agonist (amphetamine in our case) and assessed for their turning behavior (Kelly et al., 1975; Torres and Dunnet, 2007; DaCunha et al., 2008) The observed rotational behavior is likely due to the denervation of dopaminergic neurons and subsequent hypersensitivity of the dopaminergic receptors in the lesioned area of the brain. In the first experiment, mild lesions (25%) were induced (FIG. 9A) to simulate the early stages of PD, and amphetamine was used to induce […] rotations. Rats were treated with either vehicle or 2LS98Lac (15 mg/kg, i.p.) 6 h prior to lesioning and 24 h post-lesion. […] Following behavioral analysis, the number of tyrosine hydroxylase (TH)-positive neurons in the SNpc of both vehicle-treated and 2LS98Lac-treated animals was determined using immunohistochemical staining and unbiased stereology. […] Both behavioral and histological data obtained from these experiments indicate that 2LS98Lac successfully elicited neuroprotection.

[4] = test system: 6-OHDA hemi-parkinsonian rat model; experiment: moderate (40%) 6-OHDA hemi-parkinsonian rat model (study 2); type: in vivo
From the text: In a follow-up study, the neuroprotective potential of 2LS98Lac was also probed in rats with more severe (40%) 6-OHDA-induced lesions and three treatment-injections with 2LS98Lac (FIG. 9B).
Specifically, 6-OHDA did lead to reduction of % area IBA-1/cell (F3-24=4.463, p=0.0140; FIG. 9K), process length/cell (F3-24=5.925, p=0.0057; FIG. 9L), branches/cell (F3-24=5.845, p=0.0042; FIG. 9M), and endpoints/cell (F3-24=2.943, p=0.0286; FIG. 9N) on the lesioned side. Treatment with 2LS98Lac did lead to an increase of the parameters on the lesioned side back to levels on the intact side. […] Example images for the nigral IHC for TH and for IBA-1, as well as the semi-quantitative western analyses of striatal TH and beta-actin are presented in FIGS. 10A-D.

[5] = lesioned side, treatment vs vehicle
[6] = three treatment-injections, vs vehicle
[7] = treatment vs vehicle, listed as 2LS98lac

CC[C@H](C)[C@H](NC(=O)CNC(=O)[C@H](CC(=O)O)NC(=O)[C@H](CO)NC(=O)[C@@H](N)Cc1c[nH]cn1)C(=O)N[C@@H](Cc1ccccc1)C(=O)N[C@H](C(=O)N[C@@H](CC(=O)O)C(=O)N[C@@H](CO)C(=O)N[C@@H](Cc1ccc(O)cc1)C(=O)N[C@@H](CO)C(=O)N[C@@H](CCCNC(=N)N)C(=O)N[C@@H](Cc1ccc(O)cc1)C(=O)N[C@@H](CCCNC(=N)N)C(=O)N[C@@H](CCCCN)C(=O)N[C@@H](CCC(N)=O)C(=O)N[C@@H](CC(C)C)C(=O)N[C@@H](C)C(=O)N[C@H](C(=O)N[C@@H](CCCCN)C(=O)N[C@@H](CCCCN)C(=O)N[C@@H](Cc1ccc(O)cc1)C(=O)N[C@@H](CC(C)C)C(=O)N[C@@H](C)C(=O)N[C@@H](C)C(=O)N[C@H](C(=O)N[C@@H](CC(C)C)C(=O)N[C@@H](CO[C@@H]1O[C@H](CO)[C@@H](O[C@@H]2O[C@H](CO)[C@H](O)[C@H](O)[C@H]2O)[C@H](O)[C@H]1O)C(N)=O)C(C)C)C(C)C)[C@@H](C)O [Compound 2LS80Lac]
half-life [1]: > 1 h

PACAP1-27-S-L: the corresponding lactoside of PACAP1-27 (HSDGIFTDSYSRYRKQMAVKKYLAAVLS; not fully specified)
degradation in mouse serum [2]: degraded over 30 min | cell body volumes (PC12 cells): showed increases

2LS98Lac: PACAP glycopeptide; 2LS98 = HSDGIFTDSYSRYRKQLAVKKYLAAVL-Ser-CONH2 (SEQ ID NO: 7), lactose (HSDGIFTDSYSRYRKQLAVKKYLAAVLS; not fully specified; lactose glycosylation, C-terminal amide) [Compound 2LS98Lac]
cumulative amphetamine-induced contralateral rotations ([3]; 15 mg/kg i.p. 6 h prior and 24 h post-lesion, vs vehicle): significantly decreased; also recorded: reduces 6-OHDA-induced lesion damage | TH-positive neurons in the SNpc, lesioned vs intact side ([3]; 15 mg/kg i.p., mild lesion): neuronal cell death was attenuated | 6-OHDA-induced change in microglia morphologic phenotype ([4]; lesioned side): fully reversed | % area IBA-1/cell [4, 5]: significant increase | branches/cell [4, 5]: significant increase | endpoints/cell [4, 5]: trend toward increase | process length/cell [4, 5]: significant increase | 6-OHDA-induced change in microglia morphologic phenotype ([4]; lesioned side, listed as 2LS98lac): rescues 6-OHDA induced morphological changes to microglia | nigral TH-cell count on the lesioned side ([4]; moderate lesion): 9,244 cells | mean increase of nigral TH-cell count on the lesioned side vs vehicle group ([4]; not significant (p=0.2208)): 850 cells | amphetamine-induced rotations at 2 weeks post-lesion [4, 6]: did not see a difference; also recorded: does not reduce 6-OHDA-induced lesion damage | amphetamine-induced rotations at 4 weeks post-lesion [4, 6]: did not see a difference; also recorded: does not reduce 6-OHDA-induced lesion damage | striatal DA content ([4]; treatment vs vehicle): no significant difference | striatal TH (western analysis) ([4]; treatment vs vehicle): no significant difference | striatal DA content [4, 7]: did not change | striatal TH (western analysis) [4, 7]: did not change
